{"source": "patent US6613317B1", "about": "“Volatile attractants for diabrotica species” (priority 1988, dated 2003)", "key": {"D. barberi": {"tested_on": "D. barberi", "assay": "Sticky trap attraction along hybrid corn, Pomology South Farms (Example 2)", "assay_type": "in vivo, Diabrotica barberi", "conditions": "100 mg per trap, n = 4", "method_in_brief": "(§1)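 Lures (>98% purity) dosed at 100 mg per trap on cotton wicks atop TangleTrap-coated 1.0 liter cartons, solids dissolved in acetone; untreated wicks as controls. Four replicates placed 10 m apart on 1 m posts along a 0.8 ha hybrid corn field; mean beetles caught after 24-h, log-transformed ANOVA with Duncan's test.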"}, "[1]": {"tested_on": "western corn rootworm (WCR) adults", "assay": "Sticky trap attraction in corn, estragole analogues (Example 3)", "assay_type": "in vivo, Diabrotica virgifera virgifera", "conditions": "100 mg per trap, n = 4", "method_in_brief": "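Cotton wicks dosed with 100 mg or 100 μL attractant per trap on TangleTrap-coated cartons, four replicates 10 m apart on 1 m posts at field edges of hybrid or sweet corn. Mean beetles caught after ~24 h; log-transformed ANOVA with Duncan's test, P=0.05.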"}, "SCR": {"tested_on": "SCR", "assay": "Limit of response rating of squash blossom volatiles on sticky traps (Example 5)", "assay_type": "in vivo, Diabrotica undecimpunctata howardi", "conditions": "24 hour; four replicate traps; 0.01 mg to 200 mg", "method_in_brief": "(§2)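 Adult Diabrotica beetles were tested against cylindrical sticky traps baited with cotton wicks holding 0.01 mg to 200 mg of individual Cucurbita maxima blossom volatiles. Response limit rated by trap catch.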"}, "D. cristata": {"tested_on": "D. cristata", "assay": "Sticky trap attraction in prairie habitat, Trelease Woods (Example 2)", "assay_type": "in vivo, Diabrotica cristata", "conditions": "100 mg per trap, n = 4", "method_in_brief": "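Lure-dosed cotton wicks (solids in acetone; untreated controls) on TangleTrap-coated cartons atop 1 m posts, four replicates 10 m apart in relict prairie, mid-August over two years. Read-out: mean beetles caught after 24-h; log-transformed ANOVA with Duncan's multiple range test.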"}, "D. v. virgifera": {"tested_on": "D. v. virgifera", "assay": "Sticky trap attraction along hybrid corn, Pomology South Farms (Example 2)", "assay_type": "in vivo, Diabrotica virgifera virgifera", "conditions": "100 mg per trap, n = 4", "method_in_brief": "as §1"}, "WCR": {"tested_on": "WCR", "assay": "Limit of response rating of squash blossom volatiles on sticky traps (Example 5)", "assay_type": "in vivo, Diabrotica virgifera virgifera", "conditions": "24 hour; four replicate traps; 0.01 mg to 200 mg", "method_in_brief": "as §2"}, "D. u. howardi": {"tested_on": "D. u. howardi", "assay": "Sticky trap attraction along hybrid corn, Pomology South Farms (Example 2)", "assay_type": "in vivo, Diabrotica undecimpunctata howardi", "conditions": "100 mg per trap, n = 4", "method_in_brief": "as §1"}}, "note": "Marks after values point to notes of the source that are not given here."}
{"smiles": "OCC=Cc1ccccc1", "note": "[XVIII, cinnamyl alcohol]", "values": [{"measurement": "Mean number of D. barberi per stick trap per day (±standard deviation) in corn", "setting": "D. barberi; August 7", "value": "8.5 ± 6.1^b per stick trap per day"}, {"measurement": "Mean number of D. barberi per stick trap per day (±standard deviation) in corn", "setting": "D. barberi; August 18", "value": "23.3 ± 5.9^c per stick trap per day"}, {"measurement": "Mean number of WCR per sticky trap after 24 hours", "setting": "[1]; August 5 (Table 10)", "value": "16.5 ± 1.9^ab per sticky trap"}, {"measurement": "Mean number of WCR (±standard deviation) per sticky trap after 24 hours", "setting": "[1]; August 7 (Table 11)", "value": "13.8 ± 10.2^a per sticky trap"}, {"measurement": "Mean number of WCR (±standard deviation) per sticky trap after 24 hours", "setting": "[1]; August 18 (Table 11)", "value": "3.3 ± 1.7^a per sticky trap"}, {"measurement": "Attractant Rating SCR (by limit of response)", "setting": "SCR", "value": "+2 (10-30)"}, {"measurement": "Mean number of D. cristata per day (±standard deviation)", "setting": "D. cristata; August 11, 1987", "value": "28.3 ± 5.3^c per day"}, {"measurement": "Mean number of D. cristata per day (±standard deviation)", "setting": "D. cristata; August 14, 1987", "value": "20.5 ± 1.3^d per day"}, {"measurement": "Mean number of D. v. virgifera per stick trap per day (±standard deviation) in corn", "setting": "D. v. virgifera; August 7", "value": "13.8 ± 10.2^a per stick trap per day"}, {"measurement": "Mean number of D. v. virgifera per stick trap per day (±standard deviation) in corn", "setting": "D. v. virgifera; August 18", "value": "3.3 ± 2.7^a per stick trap per day"}, {"measurement": "Attractant Rating WCR (by limit of response)", "setting": "WCR", "value": "+1 (30-100)"}, {"measurement": "Mean number of D. u. howardi per stick trap per day (±standard deviation) in corn", "setting": "D. u. howardi; August 7", "value": "24.5 ± 13.6^b per stick trap per day"}, {"measurement": "Mean number of D. u. howardi per stick trap per day (±standard deviation) in corn", "setting": "D. u. howardi; August 18", "value": "1.8 ± 1.3^b per stick trap per day"}]}
{"smiles": "C=CCc1ccc(O)c(OC)c1", "note": "[XXIV, eugenol]", "values": [{"measurement": "Mean number of D. barberi per stick trap per day (±standard deviation) in corn", "setting": "D. barberi; August 7", "value": "5.8 ± 2.2^b per stick trap per day"}, {"measurement": "Mean number of D. barberi per stick trap per day (±standard deviation) in corn", "setting": "D. barberi; August 18", "value": "16.3 ± 5.7^b per stick trap per day"}, {"measurement": "Mean number of WCR (±standard deviation) per sticky trap after 24 hours", "setting": "[1]; August 7 (Table 11)", "value": "10.0 ± 2.9^a per sticky trap"}, {"measurement": "Mean number of WCR (±standard deviation) per sticky trap after 24 hours", "setting": "[1]; August 18 (Table 11)", "value": "2.7 ± 2.9^a per sticky trap"}, {"measurement": "Mean number of D. cristata per day (±standard deviation)", "setting": "D. cristata; August 11, 1987", "value": "39.5 ± 9.4^c per day"}, {"measurement": "Mean number of D. cristata per day (±standard deviation)", "setting": "D. cristata; August 14, 1987", "value": "20.0 ± 8.4^cd per day"}, {"measurement": "Mean number of D. cristata per sticky trap per day (±standard deviation)", "setting": "D. cristata; August 18, first year", "value": "11.5 ± 8.6^b per sticky trap per day"}, {"measurement": "Mean number of D. cristata per sticky trap per day (±standard deviation)", "setting": "D. cristata; August 20, first year", "value": "15.5 ± 7.9^c per sticky trap per day"}, {"measurement": "Mean number of D. cristata per sticky trap per day (±standard deviation)", "setting": "D. cristata; August 27, first year", "value": "3.5 ± 3.3^b per sticky trap per day"}, {"measurement": "Mean number of D. v. virgifera per stick trap per day (±standard deviation) in corn", "setting": "D. v. virgifera; August 7", "value": "10.0 ± 2.9^a per stick trap per day"}, {"measurement": "Mean number of D. v. virgifera per stick trap per day (±standard deviation) in corn", "setting": "D. v. virgifera; August 18", "value": "2.8 ± 2.9^a per stick trap per day"}, {"measurement": "Mean number of D. u. howardi per stick trap per day (±standard deviation) in corn", "setting": "D. u. howardi; August 7", "value": "6.3 ± 1.0^a per stick trap per day"}, {"measurement": "Mean number of D. u. howardi per stick trap per day (±standard deviation) in corn", "setting": "D. u. howardi; August 18", "value": "0.0^a per stick trap per day"}]}
